Reference: patent US20220409727A1, “Metal Complexes Bearing Bisstyryl-Bipyridine Ligand and Their Use as Photosensitizer Agent in One and Two-Photon Photodynamic Therapy” (Paris Sciences et Lettres, priority 2019, published 2022)
Read-outs that look alike come from different tables or passages of the source.

How the values were obtained:
[1] = system: human cervical carcinoma (HeLa) cells; test: (Photo-)cytotoxicity on 2D cell monolayers, resazurin assay, HeLa; format: cell-based
Description: Before an experiment, the cells were passaged three times.

HeLa MCTS [2] = test: 3D multicellular tumor spheroids (MCTS) growth inhibition assay; format: cell-based, human
Description: (§1) autoclave. The hot emulsion was transferred into wells (50 μL per well) of a 96 cell culture well plate. The plates were exposed for 3 h to UV irradiation to ensure the sterility and allow the agarose solution to cool down. After this time, the agarose was overlayed with a HeLa cell suspension at a density of 3000 cells per well in 150 μL of media. The MCTS were cultivated and maintained at 37° C. in a cell culture incubator at 37° C. with 5% CO2 atmosphere. The culture media was replaced every two days. Within two-three days MCTs were formed from the cell suspension. The formation as well as integrity, diameter and volume of the MCTs was monitored by an Axio Observer Z1 (Carl Zeiss) phase contrast microscope. The volume was calculated using the following formula: V=4/3πr^3. The luminescence images along the z-axis were captured by a one-(λex=458 nm, λem=600-750 nm) or two-photon (λex=800 nm, λem=600-750 nm) excitation in the z-stack mode with a an LSM 880 (Carl Zeiss) laser scanning confocal microscope equipped with Argon and a Coherent Chameleon 2-Photon laser and a GaAsP detector.
MCTS were treated with the corresponding compounds (20 μM 1-7, 20 μM tetraphenylporphyrin H2TPP, 10 μM cisplatin, 30 μM cisplatin, 2% DMSO, v %) by replacing 50% of the media with drug supplemented media in the dark for three days. After this time, the MCTS were exposed to a two-photon irradiation (800 nm, 10 J/cm^2) with a section interval of 5 μm using a LSM 880 (Carl Zeiss) laser scanning confocal microscope equipped with a Coherent Chameleon 2-Photon laser. The cell culture media was replaced every two days. The integrity and diameter of the MCTs was monitored with an Axio Observer Z1 (Carl Zeiss) phase contrast microscope every 24 h.

HeLa MCTS [3] = test: (Photo-)cytotoxicity on 3D multicellular tumor spheroids (ATP, CellTiter-Glo 3D); format: cell-based, human; settings: dark, 12 h incubation, read-out: IC50 dark
Description: as §1
The cytotoxicity of the compounds in 3D multicellular tumor spheroids (MCTS) was assessed by measurement of the ATP concentration. MCTS were treated with increasing concentrations of the compound (2% DMSO, v %) by replacing 50% of the media with drug supplemented media and incubation for 12 h. After this time, the MCTS were divided in three identical groups. The first group was strictly kept in the dark. The second group was exposed to a one-photon irradiation (500 nm, 10 J/cm^2) using a LED and the third group was exposed to a two-photon irradiation (800 nm, 10 J/cm^2) with a section interval of 5 μm using a LSM 880 (Carl Zeiss, Germany) laser scanning confocal microscope equipped with a Coherent Chameleon 2-Photon laser. After the irradiation, all groups were incubated additional 48 h. The ATP concertation was measured using a CellTiter-Glo 3D Cell Viability kit (Promega) by measuring the generated chemiluminescence with an infinite M200 PRO (Tecan) plate reader.

[4] = system: human glioblastoma astrocytoma (U373) cells; test: (Photo-)cytotoxicity on 2D cell monolayers, resazurin assay, U373; settings: for IC50: compounds 1-3 as chloride salts
Description: (§2) The human glioblastoma astrocytoma (U373) cell line was cultured in MEM medium supplemented with 10% FBS, 1% NEAA (non-essential amino-acids) and 1% penicillin/streptomycin. […] The human retinal epithelial cells (RPE-1, non-cancerous cells immortalized with hTERT) were cultured in DMEM-F12 medium supplemented with 10% FBS and 1% penicillin/streptomycin. All cell lines were obtained from the American Type Culture Collection (ATCC) and cultured at 37° C. and 5% CO2. Before an experiment, the cells were passaged three times.
(§3) The cytotoxicity of the compounds was assessed by measuring cell viability using a fluorometric resazurin assay. The cultivated cells were seeded in triplicates in 96 well plates with a density of 4000 cells per well in 100 μL of media. After 24 h, the medium was removed and the cells were treated with increasing concentrations of the compound diluted in cell media achieving a total volume of 200 μL. The cells were incubated with the compound for 4 h. After this time, the media was removed and replaced with 200 μL of fresh medium. For the phototoxicity studies, the cells were exposed to light with an Atlas Photonics LUMOS BIO irradiator. Each well was constantly illuminated with either a 480 nm or 540 nm irradiation. During this time, the temperature was maintained constantly at 37° C. The cells were grown in the incubator for additional 44 h. For the determination of the dark cytotoxicity, the cells were not irradiated and after the medium exchange directly incubated for 44 h. After this time, the medium was replaced with fresh medium containing resazurin with a final concentration of 0.2 mg/mL. After 4 h incubation, the amount of the fluorescent product resorufin was determined upon excitation at 540 nm and measurement its emission at 590 nm using a SpectraMax M2 Microplate Reader (Molecular Devices).
(§4) The obtained data was analyzed with the GraphPad Prism software.

[5] = system: mouse colon carcinoma (CT-26) cells; test: (Photo-)cytotoxicity on 2D cell monolayers, resazurin assay, CT-26; settings: for IC50: compounds 1-3 as chloride salts
Description: as §2, §3, §4

[6] = Emission measurement in CH3CN; format: physicochemical; settings: room temperature, excitation at 355 nm
Description: The absorption of the samples was measured with a SpectraMax M2 Spectrometer (Molecular Devices). The emission was measured by irradiation of the sample in fluorescence quartz cuvettes (width 1 cm) using a NT342B Nd-YAG pumped optical parametric oscillator (Ekspla) at 355 nm. Luminescence was focused and collected at right angle to the excitation pathway and directed to a Princeton Instruments Acton SP-2300i monochromator. As a detector, a XPI-Max 4 CCD camera (Princeton Instruments) has been used.

[7] = Luminescence quantum yield measurements; format: physicochemical; parameters: key: fraction, relative to [Ru(bipy)3]Cl2 reference in CH3CN (Φem=5.9%); settings: CH3CN, room temperature, excitation at 355 nm
Description: For the determination of the luminescence quantum yield, the samples were prepared in an CH3CN solution with an absorbance of 0.1 at 355 nm. This solution was irradiated in fluorescence quartz cuvettes (width 1 cm) using a NT342B Nd-YAG pumped optical parametric oscillator (Ekspla) at 355 nm. The emission signal was focused and collected at right angle to the excitation pathway and directed to a Princeton Instruments Acton SP-2300i monochromator. As a detector a XPI-Max 4 CCD camera (Princeton Instruments) has been used. The luminescence quantum yields were determined by comparison with the reference [Ru(bipy)3]Cl2 in CH3CN (Φem=5.9%) (Nakamaru, K., 1982) applying the following formula:
Φem, sample=Φem, reference*(Freference/Fsample)*(Isample/Ireference)*(nsample/nreference)^2
Φem=luminescence quantum yield, F=fraction of light absorbed, I=integrated emission intensities, n=refractive index, A=absorbance of the sample at irradiation wavelength.

[8] = Luminescence lifetime measurements; format: physicochemical; settings: excitation at 355 nm
Description: For the determination of the lifetimes, the samples were prepared in an air saturated and in a degassed CH3CN solution with an absorbance of 0.2 at 355 nm. This solution was irradiated in fluorescence quartz cuvettes (width 1 cm) using a NT342B Nd-YAG pumped optical parametric oscillator (Ekspla) at 355 nm. The emission signal was focused and collected at right angle to the excitation pathway and directed to a Princeton Instruments Acton SP-2300i monochromator. As a detector a R928 photomultiplier tube (Hamamatsu) has been used.

[9] = Singlet oxygen measurement, direct evaluation (1O2 luminescence at 1270 nm); format: physicochemical
Description: The samples were prepared in an air saturated CH3CN or D2O solution with an absorbance of 0.2 at 450 nm. This solution was irradiated in fluorescence quartz cuvettes (width 1 cm) using a mounted M450LP1 LED (Thorlabs) whose irradiation, centered at 450 nm, has been focused with aspheric condenser lenses. The intensity of the irradiation has been varied using a T-Cube LED Driver (Thorlabs) and measured with an optical power and energy meter. The emission signal was focused and collected at right angle to the excitation pathway and directed to a Princeton Instruments Acton SP-2300i monochromator. A longpass glass filter was placed in front of the monochromator entrance slit to cut off light at wavelengths shorter than 850 nm. As a detector an EO-817L IR-sensitive liquid nitrogen cooled germanium diode detector (North Coast Scientific Corp.) has been used. The singlet oxygen luminesce at 1270 nm was measured by recording spectra from 1100 to 1400 nm. For the data analysis, the singlet oxygen luminescence peaks at different irradiation intensities were integrated. The resulting areas were plotted against the percentage of the irradiation intensity and the slope of the linear regression calculated. The absorbance of the sample was corrected with an absorbance correction factor. As reference for the measurement Rose Bengal (Φ=76%) (Kochevar, I. E. and Redmond, R. W., 2000) was used and the singlet oxygen quantum yields were calculated using the following formula:
Φsample=Φreference*(Ssample/Sreference)*(Ireference/Isample)
Φ=singlet oxygen quantum yield, S=slope of the linear regression of the plot of the areas of the singlet oxygen luminescence peaks against the irradiation intensity, I=absorbance correction factor, […] of the irradiation source, A=absorbance of the sample at irradiation wavelength.

[10] = Singlet oxygen measurement, indirect evaluation (RNO absorbance); format: physicochemical; settings: indirect
Description: For the measurement in CH3CN: The samples were prepared in an air-saturated CH3CN solution containing the complex with an absorbance of 0.2 at the irradiation wavelength, N,N-dimethyl-4-nitrosoaniline aniline (RNO, 24 μM) and imidazole (12 mM). For the measurement in PBS buffer: The samples were prepared in an air-saturated PBS solution containing the complex with an absorbance of 0.1 at the irradiation wavelength, N,N-dimethyl-4-nitrosoaniline aniline (RNO, 20 μM) and histidine (10 mM). The samples were irradiated on 96 well plates with an Atlas Photonics LUMOS BIO irradiator for different times. The absorbance of the samples was measured during these time intervals with a SpectraMax M2 Microplate Reader (Molecular Devices). The difference in absorbance (A0−A) at 420 nm for the CH3CN solution or at 440 nm a PBS buffer solution was calculated and plotted against the irradiation times. From the plot the slope of the linear regression was calculated as well as the absorbance correction factor determined. The singlet oxygen quantum yields were calculated using the same formulas as used for the direct evaluation.

[11] = system: mouse colon carcinoma (CT-26) cells
Description: as §2, §3, §4

[12] = system: human glioblastoma astrocytoma (U373) cells
Description: as §2, §3, §4

[13] = system: non-cancerous retinal pigment epithelium (RPE-1) cells; test: (Photo-)cytotoxicity on 2D cell monolayers, resazurin assay, RPE-1;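 also: cells exposed to compound 4 h, medium exchanged, then irradiated or kept dark, 44 h further growth, viability by resorufin fluorescence (ex 540 nm, em 590 nm)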
Description: as §2, §3, §4

[14] = reference for the measurement; cited from earlier work
[15] = CH3CN; cited from earlier work
[16] = dark, 4 h incubation, compounds 1-3 as chloride salts, read-out: IC50 dark
[17] = read-out: IC50 dark, U373, dark, 4 h incubation
[18] = read-out: IC50 dark, CT-26, dark, 4 h incubation

Question: With N.N.[Cl][Pt][Cl] [cisplatin, reference compound] as the compound, how does the IC50 [1, 16] read?
Answer: 10.5 ± 0.8 µM

Question: What about the “effect on the tumours growth (MCTS volume) at 10 μM” value (HeLa MCTS [2]; 10 μM) of the same compound?
Answer: weak effect

Question: What about the “effect on the tumours growth (MCTS volume) at 30 μM” value (HeLa MCTS [2]; 30 μM) of the same compound?
Answer: significantly decreasing the volume

Question: What about the IC50 (HeLa MCTS [3]) of the same compound?
Answer: 18.6 ± 1.3 µM

Question: And the IC50 [4, 17]?
Answer: 17.6 ± 1.7 µM

Question: What about the IC50 [5, 18] of the same compound?
Answer: 6.5 ± 1.1 µM

Question: For COc1ccc(/C=C/c2ccnc(-c3cc(/C=C/c4ccc(OC)cc4)ccn3)c2)cc1.COc1ccc(/C=C/c2ccnc(-c3cc(/C=C/c4ccc(OC)cc4)ccn3)c2)cc1.COc1ccc(/C=C/c2ccnc(-c3cc(/C=C/c4ccc(OC)cc4)ccn3)c2)cc1.F[P-](F)(F)(F)(F)F.F[P-](F)(F)(F)(F)F.[Ru+2] [Compound 3, [Ru((E,E′)-4,4′-Bis[p-methoxystyryl]-2,2′-bipyridine)3][PF6]2], which “λem/nm (Emission maximum)” value [6] is on record?
Answer: 682 nm

Question: What about the “ϕem (Luminescence Quantum Yield)” value [7] of the same compound?
Answer: 0.011

Question: And the “τ/ns air (Lifetime)” value ([8]; air saturated CH3CN)?
Answer: 76 ns

Question: And the “τ/ns degassed (Lifetime)” value ([8]; degassed CH3CN)?
Answer: 338 ns

Question: What about the “Singlet oxygen quantum yield, direct 450 nm CH3CN” value [9] of the same compound?
Answer: 52%

Question: And the “Singlet oxygen quantum yield, indirect 450 nm CH3CN” value ([10]; 450 nm, CH3CN)?
Answer: 48%

Question: What about the “Singlet oxygen quantum yield, indirect 450 nm PBS” value ([10]; 450 nm, PBS) of the same compound?
Answer: 6%

Question: And the “Singlet oxygen quantum yield, indirect 540 nm CH3CN” value ([10]; 540 nm, CH3CN)?
Answer: 49%

Question: What about the “Singlet oxygen quantum yield, indirect 540 nm PBS” value ([10]; 540 nm, PBS) of the same compound?
Answer: 5%

Question: What about the “PI (480 nm)” value ([1]; dark vs 480 nm (10 min, 3.1 J/cm^2)) of the same compound?
Answer: >6.5

Question: And the “PI (540 nm)” value ([1]; dark vs 540 nm (40 min, 9.5 J/cm^2))?
Answer: >8.8

Question: And the IC50 [1, 16]?
Answer: > 100 µM

Question: What about the IC50 ([1]; read-out: IC50 480 nm (10 min, 3.1 J/cm^2), irradiation 480 nm (10 min, 3.1 J/cm^2), compounds 1-3 as chloride salts) of the same compound?
Answer: 15.3 ± 1.4 µM

Question: And the IC50 ([1]; read-out: IC50 540 nm (40 min, 9.5 J/cm^2), irradiation 540 nm (40 min, 9.5 J/cm^2), compounds 1-3 as chloride salts)?
Answer: 11.3 ± 2.2 µM

Question: And the IC50 [11]?
Answer: 19.3 ± 2.1 µM

Question: And the IC50 [12]?
Answer: 51.3 ± 3.4 µM

Question: And the “PI (480 nm)” value ([4]; U373, dark vs 480 nm (10 min, 3.1 J/cm^2))?
Answer: >2.4

Question: And the “PI (540 nm)” value ([4]; U373, dark vs 540 nm (40 min, 9.5 J/cm^2))?
Answer: >1.9

Question: What about the IC50 ([4]; read-out: IC50 480 nm (10 min, 3.1 J/cm^2), U373, irradiation 480 nm (10 min, 3.1 J/cm^2)) of the same compound?
Answer: 41 ± 3.5 µM

Question: And the IC50 [4, 17]?
Answer: > 100 µM

Question: What about the “PI (480 nm)” value ([13]; RPE-1, dark vs 480 nm (10 min, 3.1 J/cm^2)) of the same compound?
Answer: >1.9

Question: And the “PI (540 nm)” value ([13]; RPE-1, dark vs 540 nm (40 min, 9.5 J/cm^2))?
Answer: >2.2

Question: And the “PI (480 nm)” value ([5]; CT-26, dark vs 480 nm (10 min, 3.1 J/cm^2))?
Answer: >5.2

Question: And the “PI (540 nm)” value ([5]; CT-26, dark vs 540 nm (40 min, 9.5 J/cm^2))?
Answer: >4.3

Question: And the IC50 ([5]; read-out: IC50 540 nm (40 min, 9.5 J/cm^2), CT-26, irradiation 540 nm (40 min, 9.5 J/cm^2))?
Answer: 23 ± 2.6 µM

Question: What about the IC50 [5, 18] of the same compound?
Answer: > 100 µM

Question: With O=C([O-])c1c(Cl)c(Cl)c(Cl)c(Cl)c1-c1c2cc(I)c(=O)c(I)c-2oc2c(I)c([O-])c(I)cc12.[Na+].[Na+] [Rose Bengal] as the compound, how does the “Φ (singlet oxygen quantum yield of the reference)” value [14] read?
Answer: 76%

Question: For [Cl-].[Cl-].[Ru+2].c1ccc(-c2ccccn2)nc1.c1ccc(-c2ccccn2)nc1.c1ccc(-c2ccccn2)nc1 [[Ru(bipy)3]Cl2], which “Φem (luminescence quantum yield of the reference)” value [15] is on record?
Answer: 5.9%
